Experimental data: patent publication US6015805A, “17β-nitro-11β-arylisteroids and their derivatives having agonist or antagonist hormonal properties” (Research Triangle Research North Carolina, priority 1999, dated 2000)

How the values were obtained:
[1] = biological target: T1, human progesterone hormone receptor (hPR) (Homo sapiens, UniProt P06401); assay: Receptor binding (human), inhibition of [^3 H]-R5020 binding; settings: cytosol from human T-47D cells; 0.4 nM [^3 H]-R5020; 4 hours at 4° C.
T1 construct: The receptor was obtained in cytosol from human T-47D breast cells; endogenous in cells; host or cells: T-47D human breast cells (cytosol)
T1 sequence (P06401 1-933): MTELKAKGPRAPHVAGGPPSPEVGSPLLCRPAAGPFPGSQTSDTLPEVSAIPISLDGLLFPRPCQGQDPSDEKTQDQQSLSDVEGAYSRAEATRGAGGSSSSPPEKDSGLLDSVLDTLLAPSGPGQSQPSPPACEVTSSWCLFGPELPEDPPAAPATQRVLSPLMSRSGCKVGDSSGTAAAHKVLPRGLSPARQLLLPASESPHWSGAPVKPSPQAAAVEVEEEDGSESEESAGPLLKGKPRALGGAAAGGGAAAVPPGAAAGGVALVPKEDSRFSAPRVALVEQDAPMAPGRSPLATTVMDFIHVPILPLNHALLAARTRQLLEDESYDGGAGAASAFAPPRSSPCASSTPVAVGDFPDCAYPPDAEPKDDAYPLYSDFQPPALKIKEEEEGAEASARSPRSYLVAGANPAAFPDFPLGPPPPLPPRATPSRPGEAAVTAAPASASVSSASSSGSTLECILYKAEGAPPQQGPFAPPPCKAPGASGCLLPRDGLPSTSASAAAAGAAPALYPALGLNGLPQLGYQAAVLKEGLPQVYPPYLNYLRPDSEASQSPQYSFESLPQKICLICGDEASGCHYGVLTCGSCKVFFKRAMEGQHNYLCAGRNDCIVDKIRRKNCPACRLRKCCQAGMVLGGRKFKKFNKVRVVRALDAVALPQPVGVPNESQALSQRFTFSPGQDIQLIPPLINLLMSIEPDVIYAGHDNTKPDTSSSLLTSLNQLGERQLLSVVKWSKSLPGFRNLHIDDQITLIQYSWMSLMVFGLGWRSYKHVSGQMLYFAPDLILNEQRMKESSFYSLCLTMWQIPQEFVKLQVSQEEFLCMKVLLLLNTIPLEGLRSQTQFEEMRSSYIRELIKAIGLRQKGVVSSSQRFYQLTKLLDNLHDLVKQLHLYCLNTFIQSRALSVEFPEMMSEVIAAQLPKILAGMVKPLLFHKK
Protocol: The affinity of the compounds for hormone receptors for progestins and glucocorticoids from rabbits was determined by standard procedures similar to those that have been described in C. E. Cook, et al., Human Reproduction, Volume 9, supplement 1, pp. 32-39 (1994). However, the source of the glucocorticoid receptor was the thymus of the estrogen-primed immature female rabbit. The affinity of the compounds for the human progesterone hormone receptor was determined by standard procedures similar to those that have been described in Horwitz, et al., Cell, 28: 633-42 (1982) and Mockus, et al., Endocrinology, 110: 1564-71 (1982). The receptor was obtained in cytosol from human T-47D breast cells and [^3 H]-R5020 was used as the radioligand. T47D cells (1 billion/mL) were homogenized in TEDG buffer (10 mM Tris, 1.5 mM EDTA, 1 mM dithiothreitol, 1 mM sodium molybdate, and 10% glycerol) using a Dounce pestle A, and the homogenate was centrifuged at 34,000×g for 1 hour. The supernatant was stored at -80° C. An aliquot of receptor preparation was combined with test compound, 0.4 nM [^3 H]-R5020, and TEDG buffer to a final volume of 150 ,μL and incubated for 4 hours at 4° C. in microtiter plates. At the end of incubation 40 μL 40% polyethylene glycol and 15 μL 1% human gamma globulin was added to the incubate and the contents of each well were harvested onto double thick B filter mats (Wallac LKB) using a TomTec harvester. A film of Meltilux scintillant wax was applied to the dried filter mats and the mats were counted in a scintillation counter to determine inhibition of [^3 H]-R5020 binding. Data are expressed as lC50 values, i.e., the concentration of compound that inhibits radioligand binding by 50%.

progestin receptor (rPR) = biological target: T2, progestin receptor (rPR) (Oryctolagus cuniculus, UniProt P06186); assay: Receptor binding (rabbit), progestin receptor; settings: for Ratio PR/GR: ratio of rPR to rGR relative affinities; for Relative Binding Affinity, rPR, Relative Affinity (Progesterone): relative to progesterone = 100, rabbit progestin receptor
T2 construct: hormone receptors for progestins and glucocorticoids from rabbits; from tissue; host or cells: rabbit
T2 sequence (P06186 1-930): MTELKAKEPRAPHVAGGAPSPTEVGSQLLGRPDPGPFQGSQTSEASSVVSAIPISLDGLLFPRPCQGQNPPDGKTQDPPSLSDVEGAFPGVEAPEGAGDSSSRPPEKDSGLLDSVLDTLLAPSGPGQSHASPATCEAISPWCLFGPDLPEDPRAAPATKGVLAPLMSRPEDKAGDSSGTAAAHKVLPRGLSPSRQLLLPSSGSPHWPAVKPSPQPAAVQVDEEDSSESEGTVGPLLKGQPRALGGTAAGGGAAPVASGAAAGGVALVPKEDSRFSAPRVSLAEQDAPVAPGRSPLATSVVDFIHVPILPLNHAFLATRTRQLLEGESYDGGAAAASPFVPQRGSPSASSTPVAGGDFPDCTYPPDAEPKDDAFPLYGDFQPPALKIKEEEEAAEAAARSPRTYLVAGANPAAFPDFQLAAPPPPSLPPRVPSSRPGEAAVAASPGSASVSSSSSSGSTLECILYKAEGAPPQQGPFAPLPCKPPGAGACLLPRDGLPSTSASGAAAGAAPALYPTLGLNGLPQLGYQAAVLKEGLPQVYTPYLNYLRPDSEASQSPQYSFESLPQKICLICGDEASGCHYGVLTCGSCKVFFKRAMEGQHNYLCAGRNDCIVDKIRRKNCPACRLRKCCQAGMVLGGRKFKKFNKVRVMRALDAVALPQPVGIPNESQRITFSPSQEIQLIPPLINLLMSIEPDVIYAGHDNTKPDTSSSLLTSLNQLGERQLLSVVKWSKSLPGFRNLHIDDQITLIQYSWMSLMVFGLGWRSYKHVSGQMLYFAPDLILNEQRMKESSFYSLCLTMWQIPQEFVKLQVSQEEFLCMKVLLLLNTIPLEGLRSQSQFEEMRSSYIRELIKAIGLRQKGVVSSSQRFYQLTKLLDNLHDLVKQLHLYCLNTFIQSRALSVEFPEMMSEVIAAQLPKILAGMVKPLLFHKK

Compound | IC50 [1] | Ratio PR/GR (progestin receptor (rPR)) | Relative Binding Affinity, rPR, Relative Affinity (Progesterone) (progestin receptor (rPR)) | separation of progestin and glucocorticoid receptor affinity (progestin receptor (rPR); in words)
CC(=O)c1ccc([C@H]2C[C@@]3(C)[C@@H](CC[C@]3(CCCO)[N+](=O)[O-])[C@@H]3CCC4=CC(=O)CCC4=C32)cc1 [I 4-CH3 CO H O H --(CH2)3 OH, 11β-(4-Acetylphenyl)-17α-(3-hydroxypropyl)-17β-nitroestra-4,9-dien-3-one] | 16 nM | 17.7 | 53 | –
CC#C[C@]1([N+](=O)[O-])CC[C@H]2[C@@H]3CCC4=CC(=O)CCC4=C3[C@@H](c3ccc(C(C)=O)cc3)C[C@@]21C [I 4-CH3 CO H O H --CC--CH3, 11β-(4-Acetylphenyl)-17β-nitro-17α-(1-propynyl)estra-4,9-dien-3-one] | 0.8 nM | 7.7 | 153 | –
CC(=O)c1ccc([C@H]2C[C@@]3(C)[C@@H](CC[C@]3(/C=C/CO)[N+](=O)[O-])[C@@H]3CCC4=CC(=O)CCC4=C32)cc1 [I 4-CH3 CO H O H CH=CHCH2 OH, 11β-(4-acetylphenyl)-17α-(E-3-hydroxy-1-propenyl)-17β-nitroestra-4,9-dien-3-one] | 26.1 nM | 6.5 | 26 | –
CN(C)c1ccc([C@H]2C[C@@]3(C)[C@@H](CC[C@]3(CCCO)[N+](=O)[O-])[C@@H]3CCC4=CC(=O)CCC4=C32)cc1 [I 4-Me2 N H O H --(CH2)3 OH, 11β-[4-(N,N-Dimethylamino)phenyl]-17α-(3-hydroxypropyl)-17β-nitroestra-4,9-dien-3-one] | 4.1 nM | 2.3 | 170 | –
CC1=[N+]([O-])C2(CC1)CCC1C3CCC4=CC(=O)CCC4=C3C(c3ccc(N(C)C)cc3)CC12C (stereo not drawn) [II 4-Me2 N H O H -- CH3, 3',4'-dihydro-11β-(4-(N,N-dimethylamino)phenyl)-5'-methyl-1'-oxo-spiro[estra-4,9-dien-17β,2'(2'H)-pyrrole]-3-one] | 10.2 nM | 78.5 | 157 | excellent separation of progestin and glucocorticoid receptor affinity
